Results from ChEMBL document CHEMBL4229334, “Fluoroquinolone derivatives and their anti-tubercular activities” (Eur J Med Chem, 2018).
In brackets after ≈: the same amount, converted by molar mass.

Key:
[1] = system: Mycobacterium tuberculosis; test: Antitubercular activity against Mycobacterium tuberculosis H37Rv ATCC 27294 assessed as growth inhibition at 6.25 ug/ml by broth dilution assay relative to control; type: functional; settings: read-out: GI
Mycobacterium avium [2] = test: Antitubercular activity against Mycobacterium avium; type: functional
[3] = system: Mycolicibacterium fortuitum; test: Antitubercular activity against Mycobacterium fortuitum ATCC 6841 by NCCLS method; type: functional
[4] = system: Mycolicibacterium smegmatis; test: Antibacterial activity against Mycobacterium smegmatis by NCCLS method; type: functional
[5] = system: Mycolicibacterium fortuitum; test: Potency index, ratio of MIC for SPFX to MIC for test compound for antitubercular activity against Mycobacterium fortuitum ATCC 6841 by NCCLS method; type: functional
[6] = system: Mycolicibacterium smegmatis; test: Potency index, ratio of MIC for SPFX to MIC for test compound for antibacterial activity against Mycobacterium smegmatis by NCCLS method; type: functional
[7] = Cytotoxicity against African green monkey Vero cells after 72 hrs by MTT assay; type: cell-based; settings: chlorocebus sabaeus
[8] = system: Mycobacterium tuberculosis; test: Antitubercular activity against Mycobacterium tuberculosis H37Rv ATCC 27294 by Alamar Blue assay; type: functional
Mycobacterium avium [9] = test: Antitubercular activity against Mycobacterium avium after 14 days by two fold agar dilution method; type: functional; settings: 336 h
[10] = system: Mycobacterium intracellulare; test: Antitubercular activity against Mycobacterium intracellulare after 14 days by two fold agar dilution method; type: functional; settings: 336 h
[11] = system: Mycobacterium tuberculosis; test: Antitubercular activity against rifampicin-sensitive Mycobacterium tuberculosis after 21 days by two fold agar dilution method; type: functional; settings: 504 h
Mycobacterium avium [12] = test: Potency index, ratio of MIC for LVFX to MIC for test compound for antitubercular activity against Mycobacterium avium after 14 days by two fold agar dilution method; type: functional
Mycobacterium avium [13] = test: Potency index, ratio of MIC for GTFX to MIC for test compound for antitubercular activity against Mycobacterium avium after 14 days by two fold agar dilution method; type: functional
Mycobacterium avium [14] = test: Potency index, ratio of MIC for rifampicin to MIC for test compound for antitubercular activity against Mycobacterium avium after 14 days by two fold agar dilution method; type: functional
Mycobacterium avium [15] = test: Potency index, ratio of MIC for isoniazid to MIC for test compound for antitubercular activity against Mycobacterium avium after 14 days by two fold agar dilution method; type: functional
[16] = system: Mycobacterium intracellulare; test: Potency index, ratio of MIC for LVFX to MIC for test compound for antitubercular activity against Mycobacterium intracellulare after 14 days by two fold agar dilution method; type: functional
[17] = system: Mycobacterium intracellulare; test: Potency index, ratio of MIC for GTFX to MIC for test compound for antitubercular activity against Mycobacterium intracellulare after 14 days by two fold agar dilution method; type: functional
[18] = system: Mycobacterium intracellulare; test: Potency index, ratio of MIC for isoniazid to MIC for test compound for antitubercular activity against Mycobacterium intracellulare after 14 days by two fold agar dilution method; type: functional
[19] = system: Mycobacterium tuberculosis; test: Potency index, ratio of MIC for LVFX to MIC for test compound for antitubercular activity against rifampicin-sensitive Mycobacterium tuberculosis after 21 days by two fold agar dilution method; type: functional
[20] = system: Mycobacterium tuberculosis; test: Potency index, ratio of MIC for rifampicin to MIC for test compound for antitubercular activity against rifampicin-sensitive Mycobacterium tuberculosis after 21 days by two fold agar dilution method; type: functional
[21] = system: Mycobacterium tuberculosis; test: Potency index, ratio of MIC for isoniazid to MIC for test compound for antitubercular activity against rifampicin-sensitive Mycobacterium tuberculosis after 21 days by two fold agar dilution method; type: functional
[22] = system: Mycobacterium tuberculosis; test: Antitubercular activity against Mycobacterium tuberculosis H37Rv by serial dilution assay; type: functional
[23] = system: Mycobacterium tuberculosis; test: Potency index, ratio of MIC for perfloxacin to MIC for test compound for antitubercular activity against Mycobacterium tuberculosis H37Rv by serial dilution assay; type: functional
[24] = system: Mycobacterium tuberculosis; test: Antibacterial activity against Mycobacterium tuberculosis H37Rv after 7 days by two fold dilution assay; type: functional; settings: 168 h
[25] = system: Mycobacterium tuberculosis; test: Antitubercular activity against Mycobacterium tuberculosis H37Rv after 21 days by broth dilution assay; type: functional; settings: 504 h
[26] = system: Mycobacterium tuberculosis; test: Antitubercular activity against non-replicating Mycobacterium tuberculosis H37Rv after 10 days by low oxygen recovery assay; type: functional; settings: 240 h
[27] = system: Mycobacterium tuberculosis; test: Antitubercular activity against replicating Mycobacterium tuberculosis H37Rv by Alamar Blue assay; type: functional
[28] = system: Mycobacterium tuberculosis; test: Potency index, ratio of MIC for MXFX to MIC for test compound for antitubercular activity against non-replicating Mycobacterium tuberculosis H37Rv after 10 days by low oxygen recovery assay; type: functional
[29] = system: Mycolicibacterium smegmatis; test: Antitubercular activity against Mycobacterium smegmatis CMCC 93202 after 72 hrs; type: functional; settings: CMCC 93202, 72 h
[30] = system: Mycolicibacterium smegmatis; test: Potency index, ratio of MIC for CPFX to MIC for test compound for antitubercular activity against Mycobacterium smegmatis CMCC 93202 after 72 hrs; type: functional
[31] = system: Mycolicibacterium smegmatis; test: Potency index, ratio of MIC for 8-OMe CPFX to MIC for test compound for antitubercular activity against Mycobacterium smegmatis CMCC 93202 after 72 hrs; type: functional
[32] = system: Mycolicibacterium smegmatis; test: Potency index, ratio of MIC for MXFX to MIC for test compound for antitubercular activity against Mycobacterium smegmatis CMCC 93202 after 72 hrs; type: functional
[33] = system: Mycolicibacterium smegmatis; test: Potency index, ratio of MIC for rifampicin to MIC for test compound for antitubercular activity against Mycobacterium smegmatis CMCC 93202 after 72 hrs; type: functional
[34] = system: Mycolicibacterium smegmatis; test: Antitubercular activity against Mycobacterium smegmatis after 30 to 32 hrs; type: functional
Staphylococcus aureus = test: Antibacterial activity against Staphylococcus aureus after 18 hrs by broth microdilution assay; type: functional
Corynebacterium [35] = test: Antibacterial activity against Corynebacterium ATCC-25365 after 18 hrs by broth microdilution assay; type: functional; settings: ATCC-25365, 18 h
Corynebacterium [36] = test: Antibacterial activity against Corynebacterium ATCC-29355 after 18 hrs by broth microdilution assay; type: functional; settings: ATCC-29355, 18 h
[37] = Cytotoxicity against African green monkey Vero cells after 96 hrs by MTT assay; type: cell-based; settings: chlorocebus sabaeus
[38] = Selectivity index, ratio of IC50 for African green monkey Vero cells to MIC for Mycobacterium tuberculosis H37Rv; type: toxicity
[39] = system: Mycobacterium intracellulare; test: Antibacterial activity against Mycobacterium intracellulare after 7 days by two fold dilution assay; type: functional; settings: 168 h
Mycobacterium xenopi = test: Antibacterial activity against Mycobacterium xenopi after 7 days by two fold dilution assay; type: functional; settings: 168 h
Mycobacteroides chelonae = test: Antibacterial activity against Mycobacterium chelonae after 7 days by two fold dilution assay; type: functional; settings: 168 h
[40] = system: Mycolicibacterium smegmatis; test: Antibacterial activity against Mycobacterium smegmatis after 7 days by two fold dilution assay; type: functional; settings: 168 h

In the case of `CC1COc2c(N3CCN(C)CC3)c(F)cc3c(=O)c(C(=O)O)cn1c23` (stereo not drawn) [OFLOXACIN], the inhibition of growth at 6.25 µg/mL [1] is reported as 62 to 96%.
With `O=C(O)c1cn(-c2ccc(F)cc2)c2cc(N3CCNCC3)c(F)cc2c1=O` [SARAFLOXACIN] the MIC (Mycobacterium avium [2]) was 6.25 mg/L (≈ 16.2 µM).
In the case of `CC1(CN)CCN(c2cc3c(cc2F)c(=O)c(C(=O)O)cn3C2CC2)C1` (stereo not drawn), the MIC [3] is reported as ≤ 0.03 mg/L, the MIC [4] is reported as 0.06 mg/L (≈ 0.167 µM) and the Ratio [5] is reported as “>=2”. For the same compound, the Ratio [6] was “>=2”.
In the case of `CC1COc2c(N3CCN(S(=O)(=O)c4ccc([N+](=O)[O-])cc4)CC3)c(F)cc3c(=O)c(C(=O)O)cn1c23` (stereo not drawn), the CC50 at 72 h [7] is reported as > 33 mg/L, the inhibition of growth at 6.25 µg/mL [1] is reported as 99% and the MIC [8] is reported as 2.23 mg/L (≈ 4.19 µM).
`C[C@H]1COc2c(N3C[C@H]4CCCN[C@H]4C3)c(F)cc3c(=O)c(C(=O)O)cn1c23` showed an MIC (Mycobacterium avium [9]) of 0.2 to 1.7 mg/L (≈ 0.516 to 4.39 µM), an MIC [10] of 0.2 to 1.7 mg/L (≈ 0.516 to 4.39 µM) and an MIC [11] of 0.2 to 1.7 mg/L (≈ 0.516 to 4.39 µM). For the same compound, the Ratio (Mycobacterium avium [12]) was 3.2 - 64.2, the Ratio (Mycobacterium avium [13]) was 3.2 - 64.2 and the Ratio (Mycobacterium avium [14]) was 3.2 - 64.2. The Ratio (Mycobacterium avium [15]) was 3.2 - 64.2, the Ratio [16] was 1.9 - 8.2 and the Ratio [17] was 1.9 - 8.2. The Ratio [18] was 1.9 - 8.2, the Ratio [19] was “>=6.5 - 165” and the Ratio [20] was “>=6.5 - 165”. For the same compound, the Ratio [21] was “>=6.5 - 165”.
Compound `CCn1cc(C(=O)O)c(=O)c2cc(F)c(OCCOCCOCCOCCOCCOc3cc4c(cc3F)c(=O)c(C(=O)O)cn4CC)cc21` has an MIC [22] of 0.8 mg/L (≈ 1.14 µM) and a Ratio [23] of 5.
With `CO[C@H]1/C=C/O[C@@]2(C)Oc3c(C)c(O)c4c(O)c(c(/C=N/N5CCN(C)CC5)c(O)c4c3C2=O)NC(=O)/C(C)=C\C=C\[C@H](C)[C@H](O)[C@@H](C)[C@@H](O)[C@@H](C)[C@H](OC(C)=O)[C@@H]1C` [RIFAMPIN] the MIC [24] was 0.39 mg/L (≈ 0.474 µM), the CC50 at 72 h [7] was 7.8 mg/L (≈ 9.48 µM) and the MIC [25] was 1 mg/L (≈ 1.22 µM).
`Cc1c(N2CCC(=CO)CC2)c(F)cc2c(=O)c(C(=O)O)cn(C3CC3)c12` gave an MIC [26] of 2.95 mg/L (≈ 7.92 µM), an MIC [27] of 0.1 mg/L (≈ 0.269 µM) and a Ratio [28] of 3.1.
In the case of `COc1ccc2cc(C(=O)CN3CCN(c4c(F)cc5c(=O)c(C(=O)O)cn(C6CC6)c5c4OC)CC3)c(=O)oc2c1`, the MIC [29] is reported as 0.25 mg/L (≈ 0.433 µM), the Ratio [30] is reported as 2 - 8 and the Ratio [31] is reported as 2 - 8. For the same compound, the Ratio [32] was 2 - 8 and the Ratio [33] was 2 - 8.
Compound `CCn1cc(C(=O)N/N=C/c2cccc(O)c2)c(=O)c2cc(F)c(N3CCN(C)CC3)cc21` has an MIC [34] of 27.2 µM (≈ 12.3 µg/mL).
Work on `Cn1cc(C(=O)O)c(=O)c2cc(F)c(N3CCN(c4nnc(SCC(=O)c5ccc([N+](=O)[O-])cc5)s4)CC3)cc21` yielded an MIC [25] of 0.5 mg/L (≈ 0.855 µM), an MIC (Staphylococcus aureus) of 0.5 to 1 mg/L (≈ 0.855 to 1.71 µM) and an MIC (Corynebacterium [35]) of 0.5 to 1 mg/L (≈ 0.855 to 1.71 µM). For the same compound, the MIC (Corynebacterium [36]) was 0.5 to 1 mg/L (≈ 0.855 to 1.71 µM), the CC50 at 96 h [37] was > 6.1 mg/L and the selectivity ratio [38] was > 12.2.
For `O=C(O)c1cn(-c2ccc(O)cc2)c2cc(N3CCNCC3)c(F)cc2c1=O`, the MIC (Mycobacterium avium [2]) was 6.25 mg/L (≈ 16.3 µM).
`CCn1cc(C(=O)O)c(=O)c2cc(F)c(N3CCN(C)CC3)cc21` [PEFLOXACIN] gave an MIC [22] of 4 mg/L (≈ 12 µM).
Compound `NNC(=O)c1ccncc1` [ISONIAZID] has an MIC [39] of 12.5 mg/L (≈ 91.1 µM), an MIC (Mycobacterium xenopi) of 12.5 mg/L (≈ 91.1 µM) and an MIC (Mycobacteroides chelonae) of 12.5 mg/L (≈ 91.1 µM). The MIC [40] was 12.5 mg/L (≈ 91.1 µM), the MIC [24] was 0.05 mg/L (≈ 0.365 µM) and the CC50 at 72 h [7] was 32 mg/L (≈ 233 µM). It also gave an MIC [25] of 1.5 mg/L (≈ 10.9 µM).
With `C[C@@H]1CN(c2c(F)c(N)c3c(=O)c(C(=O)O)cn(C4CC4)c3c2F)C[C@H](C)N1` [SPARFLOXACIN] the MIC [3] was 0.06 mg/L (≈ 0.153 µM) and the MIC [4] was 0.13 mg/L (≈ 0.331 µM).
`COc1c(N2C[C@@H]3CCCN[C@@H]3C2)c(F)cc2c(=O)c(C(=O)O)cn(C3CC3)c12` [MOXIFLOXACIN] showed an MIC [26] of 9.19 mg/L (≈ 22.9 µM) and an MIC [27] of 0.1 mg/L (≈ 0.249 µM).
With `CCn1cc(C(=O)N/N=C2\C(=O)N(Cc3ccccc3)c3ccccc32)c(=O)c2ccc(C)nc21` the MIC [39] was 0.625 mg/L (≈ 1.34 µM), the MIC (Mycobacterium xenopi) was 0.625 mg/L (≈ 1.34 µM) and the MIC (Mycobacteroides chelonae) was 0.625 mg/L (≈ 1.34 µM). It also gave an MIC [40] of 0.625 mg/L (≈ 1.34 µM).
In the case of `CCn1cc(C(=O)N/N=C/c2c(Cl)cccc2Cl)c(=O)c2cc(F)c(N3CCN(C)CC3)cc21`, the MIC [34] is reported as 27 µM (≈ 13.6 µg/mL).
For `O=C(O)c1cn(C2CC2)c2cc(N3CCNCC3)c(F)cc2c1=O` [CIPROFLOXACIN], the MIC (Staphylococcus aureus) was 1 to 2 mg/L (≈ 3.02 to 6.04 µM), the MIC (Corynebacterium [35]) was 1 to 2 mg/L (≈ 3.02 to 6.04 µM) and the MIC (Corynebacterium [36]) was 1 to 2 mg/L (≈ 3.02 to 6.04 µM).
